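Test compounds were applied to cells in 96-well plates for 48 hours at 5 doses. GI50: concentration for 50% inhibition of growth. TGI marks complete inhibition of growth.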
Experiments:
Test in all cases: NCI-60 cell line screen, 48 h; in the data active = GI50 below about 0.43 µM; inactive = the rest
[1] = test system: MDA-MB-231 breast
[2] = test system: HT29 colon
[3] = test system: OVCAR-3 ovarian
[4] = test system: NCI/ADR-RES ovarian
[5] = test system: K-562 leukemia
[6] = test system: 786-0 renal
[7] = test system: CAKI-1 renal
[8] = test system: COLO 205 colon
[9] = test system: A498 renal
[10] = test system: SK-OV-3 ovarian
[11] = test system: IGROV1 ovarian
[12] = test system: HOP-62 NSCLC
[13] = test system: NCI-H460 lung
[14] = test system: SF-268 CNS
[15] = test system: NCI-H226 lung
[16] = test system: HS 578T breast
[17] = test system: MCF7 breast
[18] = test system: TK-10 renal
[19] = test system: SNB-19 CNS
[20] = test system: LOX IMVI melanoma
[21] = test system: SW-620 colon
[22] = test system: HCT-15 colon
[23] = test system: HCT-116 colon
[24] = test system: NCI-H23 lung
[25] = test system: OVCAR-5 ovarian
[26] = test system: BT-549 breast
[27] = test system: OVCAR-4 ovarian
[28] = test system: SK-MEL-2 melanoma
[29] = test system: SF-295 CNS
[30] = test system: T-47D breast
[31] = test system: UO-31 renal
[32] = test system: DU-145 prostate
[33] = test system: HOP-92 NSCLC
[34] = test system: PC-3 prostate
[35] = test system: HCC-2998 colon
[36] = test system: SR leukemia
[37] = test system: SNB-75 CNS
[38] = test system: RXF 393 renal
[39] = test system: OVCAR-8 ovarian
[40] = test system: ACHN renal
[41] = test system: U251 CNS
[42] = test system: SF-539 CNS
[43] = test system: UACC-257 melanoma
[44] = test system: EKVX NSCLC
[45] = test system: MDA-MB-435
[46] = test system: NCI-H522 lung
[47] = test system: SN12C renal
[48] = test system: MOLT-4 leukemia
[49] = test system: UACC-62 melanoma
[50] = test system: RPMI-8226 leukemia
[51] = test system: M14 melanoma
[52] = test system: CCRF-CEM leukemia
[53] = test system: A549 NSCLC
[54] = test system: MALME-3M melanoma
[55] = test system: HL-60(TB) leukemia
[56] = test system: SK-MEL-5 melanoma
[57] = test system: SK-MEL-28 melanoma

Brc1cccc(/C=N/Nc2nc(N/N=C/c3cccc(Br)c3)nc(N3CCOCC3)n2)c1
64 µM: TGI [10]
58.7 µM: TGI [19]
2290 nM: TGI [36]
6.47 µM: TGI [28]
4.78 µM: TGI [6]
1950 nM: TGI [38]
inactive: GI50 [1] 3970 nM | GI50 [2] 609 nM | GI50 [3] 3810 nM | GI50 [4] 3.25 µM | GI50 [6] 529 nM | GI50 [7] 3.52 µM | GI50 [8] 1240 nM | GI50 [10] 14.7 µM | GI50 [11] 2.92 µM | GI50 [12] 8.07 µM | GI50 [13] 3430 nM | GI50 [14] 8.4 µM | GI50 [15] 2460 nM | GI50 [16] 3.6 µM | GI50 [17] 2640 nM | GI50 [18] 8.75 µM | GI50 [19] 12.9 µM | GI50 [20] 2660 nM | GI50 [21] 825 nM | GI50 [23] 780 nM | GI50 [24] 4.5 µM | GI50 [25] > 100000 nM | GI50 [26] 3540 nM | GI50 [27] 4.89 µM | GI50 [28] 2430 nM | GI50 [29] 4.94 µM | GI50 [30] 3940 nM | GI50 [31] 1010 nM | GI50 [32] 1310 nM | GI50 [33] 1240 nM | GI50 [34] 2900 nM | GI50 [35] 3060 nM | GI50 [37] 4.54 µM | GI50 [39] 5 µM | GI50 [40] 2210 nM | GI50 [41] 4.22 µM | GI50 [42] 3830 nM
55.6 µM: TGI [12]
4.26 µM: TGI [9]
66.9 µM: TGI [26]
8.92 µM: TGI [33]
> 100 µM: TGI [1] | TGI [2] | TGI [3] | TGI [4] | TGI [5] | TGI [7] | TGI [8] | TGI [11] | TGI [13] | TGI [14] | TGI [16] | TGI [17] | TGI [18] | TGI [20] | TGI [21] | TGI [22] | TGI [23] | TGI [24] | TGI [25] | TGI [27] | TGI [29] | TGI [30] | TGI [31] | TGI [32] | TGI [34] | TGI [35] | TGI [39] | TGI [40] | TGI [41] | TGI [42]
8.51 µM: TGI [15]
29.6 µM: TGI [37]
active: GI50 [5] 336 nM | GI50 [9] 137 nM | GI50 [22] 423 nM | GI50 [36] 160 nM | GI50 [38] 159 nM

COc1ccc(NC(=O)[C@H](C)NC(=O)OC(C)(C)C)cc1C(=O)Nc1cccc(-c2cc(=O)c3c(OC)c(OC)c(OC)cc3o2)c1
3.99 µM: TGI [1] | TGI [46]
5.97 µM: TGI [30]
3.59 µM: TGI [8]
5.18 µM: TGI [12]
3.33 µM: TGI [49]
7.34 µM: TGI [47]
3370 nM: TGI [38]
> 100 µM: TGI [44] | TGI [4] | TGI [5] | TGI [6] | TGI [7] | TGI [11] | TGI [14] | TGI [19] | TGI [27] | TGI [31] | TGI [32] | TGI [34] | TGI [40]
7.27 µM: TGI [22]
5.23 µM: TGI [25]
5.47 µM: TGI [39]
6.73 µM: TGI [54]
3.87 µM: TGI [2]
3.8 µM: TGI [43]
3.11 µM: TGI [20]
2.99 µM: TGI [26]
7.78 µM: TGI [18]
4.12 µM: TGI [42]
32.7 µM: TGI [9]
5.24 µM: TGI [13]
9.52 µM: TGI [17]
4.43 µM: TGI [3]
3.84 µM: TGI [15]
3.21 µM: TGI [35]
4.29 µM: TGI [28]
inactive: GI50 [43] 1990 nM | GI50 [1] 1830 nM | GI50 [44] 3.17 µM | GI50 [2] 1880 nM | GI50 [3] 2130 nM | GI50 [4] 8.01 µM | GI50 [45] 2000 nM | GI50 [5] 2550 nM | GI50 [46] 1720 nM | GI50 [6] 3030 nM | GI50 [7] 3.06 µM | GI50 [8] 1870 nM | GI50 [9] 3350 nM | GI50 [10] 2.3 µM | GI50 [47] 2380 nM | GI50 [11] 3.25 µM | GI50 [12] 2.14 µM | GI50 [48] 1710 nM | GI50 [13] 2310 nM | GI50 [14] 3.41 µM | GI50 [49] 1700 nM | GI50 [15] 1800 nM | GI50 [50] 1550 nM | GI50 [16] 2.64 µM | GI50 [17] 2720 nM | GI50 [51] 2980 nM | GI50 [18] 2.04 µM | GI50 [19] 3.56 µM | GI50 [20] 1590 nM | GI50 [21] 2930 nM | GI50 [22] 2380 nM | GI50 [23] 2050 nM | GI50 [25] 2010 nM | GI50 [52] 1860 nM | GI50 [26] 1520 nM | GI50 [27] 3.13 µM | GI50 [53] 2940 nM | GI50 [28] 1800 nM | GI50 [30] 1700 nM | GI50 [31] 2400 nM | GI50 [54] 2480 nM | GI50 [32] 3860 nM | GI50 [34] 2950 nM | GI50 [35] 1760 nM | GI50 [36] 2370 nM | GI50 [37] 1.46 µM | GI50 [38] 1890 nM | GI50 [39] 1.7 µM | GI50 [40] 3340 nM | GI50 [41] 2.46 µM | GI50 [55] 2070 nM | GI50 [56] 1470 nM | GI50 [57] 2500 nM | GI50 [42] 1880 nM
8.26 µM: TGI [52]
9.44 µM: TGI [16]
8.64 µM: TGI [21]
4.63 µM: TGI [23]
> 100000 nM: TGI [36]
4.96 µM: TGI [55]
2990 nM: TGI [56]
7.9 µM: TGI [48]
5.07 µM: TGI [50]
4.14 µM: TGI [33]
4.11 µM: TGI [45]
6.61 µM: TGI [41]
5.72 µM: TGI [57]
7.94 µM: TGI [51]
4.87 µM: TGI [10]
10.9 µM: TGI [53]
active: GI50 [33] 370 nM
3.2 µM: TGI [37]

Reference: PubChem BioAssay (NCI)
